Source: patent US20130203668A1, “PHARMACEUTICAL COMPOSITION COMPRISING ANTIPLATELET AGENTS AND AN ERYTHROPOIESIS STIMULATING AGENT” (CADILA HEALTHCARE LIMITED, priority 2010, published 2013)

Tests used:
[1] = tested on: platelet rich plasma (PRP); assay: Ex vivo ADP-induced platelet aggregation in 5/6 nephrectomized rats (chronic kidney disease model); set-up: species or system male Wistar rats; conditions: i.v. 3 times a week for 4 weeks; for Platelet aggregation (%) Average: 2.5 μM ADP, 5/6 nephrectomized rats, EPO 500 IU/kg, Clopi 10 mg/kg
From the text: (§1) Six to eight week old male Wistar rats used and the methods and procedures described here have been reviewed and approved by the Institutional Animal Ethics Committee (IAEC). We used human therapeutic dose of rHuEPO in rats and same frequency of administration as in humans (Kirkeby A et al., Thromb Haemost, 2008; 99:720-728). A 5/6 nephrectomy has been performed on male wistar rats (Toba H et al., European Journal of Pharmacology 656, 2011, 81-87) and treatment has been started after one month of nephrectomy.
(§2) The rats were divided into 5 groups (n=6): 1) a control group, which received a sham operation (SHAM control); 2) a 5/6 nephrectomized group (NPX), removed the upper and lower poles of the left kidney and after one week the entire right kidney under anesthesia (NPX vehicle); 3) a 5/6 nephrectomy+rHuEPO group, nephrectomized and injected with rHuEPO at 500 IU/kg 3 times a week intravenously (i.v.) for 4 weeks (NPX+EPO); 4) a 5/6 nephrectomized+rHuEPO+clopidogrel group, nephrectomized and administered with rHuEPO (500 IU/kg)+clopidogrel (10 mg/kg) every 3 times a week intravenously (i.v.) for 4 weeks. 5) a 5/6 nephrectomized+clopidogrel group, nephrectomized and administered with rHuEPO (500 IU/kg)+clopidogrel (10 mg/kg) every 3 times a week intravenously (i.v.) for 4 weeks.
(§3) After 4 weeks of treatment, blood samples were collected via retro-orbital route in tubes containing 3.8% tri-sodium citrate for the collection of platelet rich plasma (PRP) for ADP-induced platelet aggregation studies. Blood samples were also collected for hematological analysis in tubes containing 5% EDTA. Serum samples were used for measurement of various kidney biomarkers such as creatinine, urea, uric acid, blood urea nitrogen and total protein.
Increase in platelet aggregatory response meaning increase in platelet reactivity when same concentration of aggregating agent is used.

[2] = Hematological parameters in 5/6 nephrectomized rats (chronic kidney disease model); type: in vivo, male Wistar rats; conditions: i.v. 3 times a week for 4 weeks; for Hematocrit (%) Average / Hemoglobin (g/dL) Average / RBC count (10^6/μL) Average: 5/6 nephrectomized rats, EPO 500 IU/kg, Clopi 10 mg/kg
From the text: as §1, §2, §3

[3] = tested on: platelet rich plasma (PRP); assay: Effect of clopidogrel and aspirin on rHuEPO-induced platelet reactivity, ex vivo platelet aggregation; type: in vivo, male Wistar rats; conditions: for Effect on platelet aggregatory response in rHuEPO treated rats (in words): rHuEPO (25 μg/kg, S.C.) treated rats, clopidogrel 2.5 mg/kg p.o., aspirin 75 mg/kg p.o.; for % platelet aggregation: rHuEPO 25 μg/kg s.c., Clopidogrel 2.5 mg/kg p.o., Aspirin 75 mg/kg p.o.
Method: (§4) Six to eight week old male Wistar rats used and the methods and procedures described here have been reviewed and approved by the Institutional Animal Ethics Committee (IAEC). Wistar male rats were divided in groups [each group containing 6 animals (n=6)]. Control animal received vehicle only (0.9% w/v NaCl normal saline), treatment groups received three consecutive doses of Recombinant Human Erythropoietin (25 and 50 μg/kg, s.c.) at an interval of 24 hour. Blood collection was performed at 48 hour after the last injection of Erythropoietin in citrated tubes. Platelet rich plasma (PRP) was separated. Determination of ex-vivo platelet aggregation was performed by using 1) ADP as aggregation inducing agent 2) Arachidonic acid as aggregation inducing agent 3) Thrombin as aggregation inducing agent and 4) Collagen as aggregation inducing agent. Platelet aggregation was performed by turbidometric method using high through put 96-well plate. Optical density was measured at 405 nm by Spectra Max plate reader. […] Increase in platelet aggregatory response meaning increase in platelet reactivity when same concentration of aggregating agent is used.
Six to eight week old male Wistar rats were divided in groups [each group containing 6 animals (n=6)]. Control animal received vehicle only (0.9% w/v NaCl normal saline), treatment groups received three consecutive doses of Recombinant Human Erythropoietin (25 μg/kg, s.c.) at an interval of 24 hour. Aspirin (75 mg/kg p.o.), and Clopidogrel (2.5 mg/kg, p.o.) were dosed individually and in combination with each other to respective groups at 48 hour after the last injection of erythropoietin. Blood collection was performed after 2 hours of antiplatelet treatment. Platelet rich plasma (PRP) was separated. Determination of ex-vivo platelet aggregation was performed by using 1) ADP as aggregation inducing agent 2) Arachidonic acid as aggregation inducing agent 3) Thrombin as aggregation inducing agent and 4) Collagen as aggregation inducing agent.

[4] = tested on: platelet rich plasma (PRP); assay: Effect of rHuEPO on platelet reactivity, ex vivo platelet aggregation (ADP, arachidonic acid, thrombin, collagen); type: in vivo, male Wistar rats; conditions: for % platelet aggregation: s.c. treated rats
Method: as §4

[5] = Kidney biomarkers in serum of 5/6 nephrectomized rats (chronic kidney disease model); type: in vivo, male Wistar rats; conditions: i.v. 3 times a week for 4 weeks
From the text: as §1, §2, §3
There was increase in the serum creatinine, serum urea, serum uric acid, blood urea nitrogen and decrease in serum total protein in nephrectomized animals. […] There was improvement in the kidney function when combination of rHuEPO and antiplatelet agent has been given every 3 times a week intravenously (i.v.) for 4 weeks in nephrectomized rats (FIGS. 6a, 6b, 6c, 6d and 6e).

[6] = Bleeding time, tail transaction test; type: in vivo, male Wistar rats; conditions: rHuEPO 25 μg/kg s.c., Clopidogrel 2.5 mpk, Aspirin 75 mpk; Wistar rats
Method: Six to eight week old male Wistar rats were divided in groups [each group containing 6 animals (n=6)]. Control animal received vehicle only (0.9% w/v NaCl normal saline), treatment groups received three consecutive doses of Recombinant Human Erythropoietin (25 μg/kg, S.C.) at an interval of 24 hour. Aspirin (75 mg/kg p.o.), and Clopidogrel (2.5 mg/kg, p.o.) individually and in combination with each other were dosed to respective groups at 48 hour after the last injection of Erythropoietin. Bleeding time experiment using tail transaction test was performed.

[7] = 5/6 nephrectomized rats, EPO 500 IU/kg, Clopi 10 mg/kg

COC(=O)[C@H](c1ccccc1Cl)N1CCc2sccc2C1 [Clopidogrel, reference compound]
Platelet aggregation (%) Average [1]: −2%
Hematocrit (%) Average [2]: 46.07%
Hemoglobin (g/dL) Average [2]: 14.77 g/dL
RBC count (10^6/μL) Average [2]: 8.52 10^6/μL
Effect on platelet aggregatory response in rHuEPO treated rats (in words) [3]: platelet aggregatory response is normalized

Recombinant Human Erythropoietin [rHuEPO]
Platelet aggregation (%) Average [1]: 55%
Effect on platelet aggregatory response in nephrectomized rats (in words) ([1]; ADP, rHuEPO 500 IU/kg, clopidogrel 10 mg/kg): platelet aggregation increases
% platelet aggregation ([4]; ADP (1.25 μM), rHuEPO 25 μg/kg, 3 doses, blood 48 h after last dose): 59.1 ± 3.2%
% platelet aggregation ([4]; ADP (1.25 μM), rHuEPO 50 μg/kg, 3 doses, blood 48 h after last dose): 66.4 ± 4.5%
% platelet aggregation ([4]; Arachidonic acid (150 μM), rHuEPO 25 μg/kg): 50.6 ± 3.1%
% platelet aggregation ([4]; Arachidonic acid (150 μM), rHuEPO 50 μg/kg): 61.3 ± 3.4%
% platelet aggregation ([4]; Collagen (0.25 μg/ml), rHuEPO 25 μg/kg): 30.5 ± 2.0%
% platelet aggregation ([4]; Collagen (0.25 μg/ml), rHuEPO 50 μg/kg): 45.9 ± 3.2%
% platelet aggregation ([4]; Collagen (0.5 μg/ml), rHuEPO 25 μg/kg): 56.9 ± 1.7%
% platelet aggregation ([4]; Collagen (0.5 μg/ml), rHuEPO 50 μg/kg): 65.9 ± 1.7%
% platelet aggregation ([4]; Thrombin (0.0125 IU/ml), rHuEPO 25 μg/kg): 37.7 ± 3.0%
% platelet aggregation ([4]; Thrombin (0.0125 IU/ml), rHuEPO 50 μg/kg): 59.5 ± 4.4%
Effect on platelet aggregation (in words) ([4]; rHuEPO 25 and 50 μg/kg, s.c., constant concentration of aggregating agents): causes increase in platelet aggregation
Blood urea nitrogen mg/dL Average [5, 7]: 64.33 mg/dL
Serum creatinine mg/dL Average [5, 7]: 0.74 mg/dL
Serum urea mg/dL Average [5, 7]: 134.33 mg/dL
Serum uric acid mg/dL Average [5, 7]: 1.4 mg/dL
Total protein g/dL Average [5, 7]: 6.13 g/dL
Effect on kidney function / kidney biomarkers (in words) ([5]; nephrectomized rats): further increase in the serum creatinine, serum urea, serum uric acid, blood urea nitrogen
Hematocrit (%) Average [2]: 62.3%
Hemoglobin (g/dL) Average [2]: 20.4 g/dL
RBC count (10^6/μL) Average [2]: 11.13 10^6/μL
Effect on hematological parameters (in words) ([2]; nephrectomized rats): increase in RBC count, hemoglobin and hematocrit
Bleeding Time [6]: 165 ± 28.1 s
% platelet aggregation ([3]; ADP (1.25 μM), blood 2 h after antiplatelet treatment): 59.5 ± 1.4%
% platelet aggregation ([3]; Arachidonic acid (150 μM)): 44.4 ± 2.5%
% platelet aggregation ([3]; Collagen (0.25 μg/ml)): 60.03 ± 1.9%
% platelet aggregation ([3]; Thrombin (0.025 IU/ml)): 70.8 ± 1.0%

CC(=O)Oc1ccccc1C(=O)O [Aspirin, reference compound]
Effect on platelet aggregatory response in rHuEPO treated rats (in words) [3]: further normalizes the hyper reactive platelets
